One experiment concerns the target T1, HCV NS5B (Hepatitis C virus genotype 1b, UniProt Q9WMX2).
T1 construct: The protein was expressed with an 18 amino acid C-terminal truncation to enhance the solubility; made in house; host or cells: E. coli BL21(DE3)
As to the kind of experiment: Modified HCV NS5B RdRp enzyme assay (preincubation protocol). The format is biochemical. As to the method: HCV NS5B RdRp cloning, expression, and purification. The cDNA encoding the NS5B protein of HCV, genotype 1b, was cloned into the pET21a expression vector. The protein was expressed with an 18 amino acid C-terminal truncation to enhance the solubility. The E. coli competent cell line BL21(DE3) was used for expression of the protein. Cultures were grown at 37° C. for ˜4 hours until the cultures reached an optical density of 2.0 at 600 nm. The cultures were cooled to 20° C. and induced with 1 mM IPTG. Fresh ampicillin was added to a final concentration of 50 μg/ml and the cells were grown overnight at 20° C.
Cell pellets (3 L) were lysed for purification to yield 15-24 mgs of purified NS5B. The lysis buffer consisted of 20 mM Tris-HCl, pH 7.4, 500 mM NaCl, 0.5% triton X-100, 1 mM DTT, 1 mM EDTA, 20% glycerol, 0.5 mg/ml lysozyme, 10 mM MgCl2, 15 ug/ml deoxyribonuclease I, and Complete TM protease inhibitor tablets (Roche). After addition of the lysis buffer, frozen cell pellets were resuspended using a tissue homogenizer. To reduce the viscosity of the sample, aliquots of the lysate were sonicated on ice using a microtip attached to a Branson sonicator. The sonicated lysate was centrifuged at 100,000×g for 1 hr at 4° C. and filtered through a 0.2 μm filter unit (Corning).
The protein was purified using three sequential chromatography steps: Heparin sepharose CL-6B, polyU sepharose 4B, and Hitrap SP sepharose (Pharmacia). The chromatography buffers were identical to the lysis buffer but contained no lysozyme, deoxyribonuclease I, MgCl2 or protease inhibitor and the NaCl concentration of the buffer was adjusted according to the requirements for charging the protein onto the column. Each column was eluted with a NaCl gradient which varied in length from 5-50 column volumes depending on the column type. After the final chromatography step, the resulting purity of the enzyme is >90% based on SDS-PAGE analysis. The enzyme was aliquoted and stored at −80° C.
Standard HCV NS5B RdRp enzyme assay. HCV RdRp genotype 1b assays were run in a final volume of 60 μl in 96 well plates (Costar 3912). The assay buffer is composed of 20 mM Hepes, pH 7.5, 2.5 mM KCl, 2.5 mM MgCl2, 1 mM DTT, 1.6 U RNAse inhibitor (Promega N2515), 0.1 mg/ml BSA (Promega R3961), and 2% glycerol. All compounds were serially diluted (3-fold) in DMSO and diluted further in water such that the final concentration of DMSO in the assay was 2%. HCV RdRp genotype 1b enzyme was used at a final concentration of 28 nM. A polyA template was used at 6 nM, and a biotinylated oligo-dT12 primer was used at 180 nM final concentration. Template was obtained commercially (Amersham 27-4110). Biotinylated primer was prepared by Sigma Genosys. 3H-UTP was used at 0.6 μCi (0.29 μM total UTP). Reactions were initiated by the addition of enzyme, incubated at 30° C. for 60 min, and stopped by adding 25 μl of 50 mM EDTA containing SPA beads (4 μg/μl, Amersham RPNQ 0007). Plates were read on a Packard Top Count NXT after >1 hr incubation at room temperature.
Modified HCV NS5B RdRp enzyme assay. A modified enzyme assay was performed essentially as described for the standard enzyme assay except for the following: The biotinylated oligo dT12 primer was precaptured on streptavidin-coated SPA beads by mixing primer and beads in assay buffer and incubating at room temperature for one hour. Unbound primer was removed after centrifugation. The primer-bound beads were resuspended in 20 mM Hepes buffer, pH 7.5 and used in the assay at final concentrations of 20 nM primer and 0.67 μg/μl beads. Order of addition in the assay: enzyme (14 nM) was added to diluted compound followed by the addition of a mixture of template (0.2 nM), 3H-UTP (0.6 μCi, 0.29 μM), and primer-bound beads, to initiate the reaction; concentrations given are final. Reactions were allowed to proceed for 4 hours at 30° C.
IC50 values for compounds were determined using seven different [I]. […]

The next experiment concerns HCV replicon cells. As to the kind of experiment: HCV replicon FRET assay. In kind it is cell-based. Particulars: Hepatitis C virus. The text has this:
FRET Assay Preparation. To perform the HCV FRET screening assay, 96-well cell culture plates were used. The FRET peptide (Anaspec, Inc.) (Taliani et al., Anal. Biochem. 1996, 240, 60-67) contains a fluorescence donor, EDANS, near one end of the peptide and an acceptor, DABCYL, near the other end. The fluorescence of the peptide is quenched by […] resonance energy transfer (RET) between the donor and the acceptor, but as the NS3 protease cleaves the peptide the products are released from RET quenching and the fluorescence of the donor becomes apparent. The assay reagent was made as follows: 5X cell Luciferase cell culture lysis reagent from Promega (#E153A) diluted to 1× with dH2O, NaCl added to 150 mM final, the FRET peptide diluted to 20 μM final from a 2 mM stock.
To prepare plates, HCV replicon cells, with or without a Renilla luciferase reporter gene, were trypsinized and placed into each well of a 96-well plate with titrated test compounds added in columns 3 through 12; columns 1 and 2 contained a control compound (HCV protease inhibitor), and the bottom row contained cells without compound. The plates were then placed in a CO2 incubator at 37° C.
Assays. Subsequent to addition of the test compounds described above (FRET Assay Preparation), at various times the plate was removed and Alamar blue solution (Trek Diagnostics, #00-100) was added per well as a measure of cellular toxicity. After reading in a Cytoflour 4000 instrument (PE Biosystems), plates were rinsed with PBS and then used for FRET assay by the addition of 30 ul of the FRET peptide assay reagent described above (FRET Assay Preparation) per well. The plate was then placed into the Cytoflour 4000 instrument which had been set to 340 excite/490 emission, automatic mode for 20 cycles and the plate read in a kinetic mode. Typically, the signal to noise using an endpoint analysis after the reads was at least three-fold. Alternatively, after Alamar blue reading, plates were rinsed with PBS, 50 ul of DMEM (high glucose) without phenol red was added and plates were then used for luciferase assay using the Promega Dual-Glo Luciferase Assay System.
Compound analysis was determined by quantification of the relative HCV replicon inhibition and the relative cytotoxicity values. To calculate cytoxicity values, the average Alamar Blue fluorescence signals from the control wells were set as 100% non-toxic. The individual signals in each of the compound test wells were then divided by the average control signal and multiplied by 100% to determine […]. To calculate the HCV replicon inhibition values, an average background value was obtained from the two wells containing the highest amount of HCV protease inhibitor at the end of the assay period. These numbers were similar to those obtained from naïve Huh-7 cells.
The background numbers were then subtracted from the average signal obtained from the control wells and this number was used as 100% activity. The individual signals in each of the compound test wells were then divided by the averaged control values after background subtraction and multiplied by 100% to determine percent activity. EC50 values for a protease inhibitor titration were calculated as the concentration which caused a 50% reduction in FRET or luciferase activity. The two numbers generated for the compound plate, percent cytoxicity and percent activity were used to determine compounds of interest for further analysis.

[1] abbreviates: determined using the preincubation protocol, read-out: IC50.
The mark [2] stands for this setting: determined using the FRET assay, read-out: EC50.

Experimental findings from patent US7538103B2, “Compounds for the treatment of hepatitis C” (Bristol-Myers Squibb Company, priority 2007, dated 2009) are described below.

Structures are written as SMILES. pEC50, pIC50: −log10 of the molar value. Like-named read-outs stand apart in the source and are kept apart here. Bounds are passed on as bounds.

T1 sequence (Q9WMX2 2420-2992): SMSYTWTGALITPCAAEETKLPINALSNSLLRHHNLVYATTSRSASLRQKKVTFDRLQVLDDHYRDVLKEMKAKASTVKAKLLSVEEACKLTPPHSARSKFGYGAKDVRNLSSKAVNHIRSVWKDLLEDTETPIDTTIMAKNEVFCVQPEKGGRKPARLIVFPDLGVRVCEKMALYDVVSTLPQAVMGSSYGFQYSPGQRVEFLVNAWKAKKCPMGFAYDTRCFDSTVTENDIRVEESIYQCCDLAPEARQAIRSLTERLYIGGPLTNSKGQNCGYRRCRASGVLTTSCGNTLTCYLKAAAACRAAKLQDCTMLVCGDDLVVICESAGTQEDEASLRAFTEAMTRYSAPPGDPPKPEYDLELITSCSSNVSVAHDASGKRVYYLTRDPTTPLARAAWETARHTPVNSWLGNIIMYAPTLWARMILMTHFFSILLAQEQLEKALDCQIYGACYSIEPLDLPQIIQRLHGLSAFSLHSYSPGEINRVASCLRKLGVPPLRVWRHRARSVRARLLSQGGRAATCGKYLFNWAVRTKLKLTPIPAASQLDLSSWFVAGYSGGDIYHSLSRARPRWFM

For `COc1ccc2c(c1)C1CC1(CC(=O)N1CCOCC1)Cn1c-2c(C2CCCCC2)c2ccc(C(=O)NS(=O)(=O)N(C)C)cc21` (centres unmarked), on HCV NS5B (setting [1]), the pIC50 is 6.30 to 9.00. For the same compound, in the experiment on HCV replicon cells (setting [2]), the pEC50 was 6.30 to 9.00.
In the case of `COC(=O)CC12CC1c1cc(OC)ccc1-c1c(C3CCCCC3)c3ccc(C(=O)NS(=O)(=O)N(C)C)cc3n1C2` (centres unmarked), the pIC50 on HCV NS5B (setting [1]) was 6.30 to 9.00. For the same compound, the pEC50 in the experiment on HCV replicon cells (setting [2]) is under 6.92.
On the same counts, the results for `COc1ccc2c(c1)C1CC1(CC(=O)N1C[C@@H](C)O[C@H](C)C1)Cn1c-2c(C2CCCCC2)c2ccc(C(=O)NS(=O)(=O)N(C)C)cc21` (some centres unmarked) are 6.30 to 9.00 and 6.30 to 9.00.
On the same counts, the results for `CCN(CC12CC1c1cc(OC)ccc1-c1c(C3CCCCC3)c3ccc(C(=O)NS(=O)(=O)N(C)C)cc3n1C2)C(C)=O` (centres unmarked) are 6.30 to 9.00 and 6.30 to 9.00.
As to `COC(=O)CC12CC1c1cc(OC)ccc1-c1c(C3CCCCC3)c3ccc(C(=O)O)cc3n1C2` (centres unmarked), the pIC50 at HCV NS5B (setting [1]) is 6.30 to 9.00. Further, the pEC50 in the experiment with HCV replicon cells (setting [2]) was 6.30 to 9.00.
Compound `COc1ccc2c(c1)C1CC1(CC(=O)N1C3CCC1CN(C)C3)Cn1c-2c(C2CCCCC2)c2ccc(C(=O)NS(=O)(=O)N(C)C)cc21` (centres unmarked) gave a negative logarithm of the IC50 (pIC50) against HCV NS5B of under 6.92. Further, in the experiment with HCV replicon cells, the pEC50 was 6.30 to 9.00.
Regarding `COc1ccc2c(c1)C1CC1(COC(=O)N1CCOCC1)Cn1c-2c(C2CCCCC2)c2ccc(C(=O)NS(=O)(=O)N(C)C)cc21` (centres unmarked), the negative-log IC50 (pIC50) on HCV NS5B (setting [1]) is 6.30 to 9.00. Moreover, in the experiment on HCV replicon cells (setting [2]), the negative logarithm of the EC50 (pEC50) was 6.30 to 9.00.
Take `COc1ccc2c(c1)C1CC1(CC(=O)O)Cn1c-2c(C2CCCCC2)c2ccc(C(=O)NS(=O)(=O)N(C)C)cc21` (centres unmarked): on HCV NS5B (setting [1]), the pIC50 is 6.30 to 9.00. Further, the negative logarithm of the EC50 (pEC50) in the experiment with HCV replicon cells (setting [2]) is 6.00 to 6.30.
For `COc1ccc2c(c1)C1CC1(CN1CCOCC1)Cn1c-2c(C2CCCCC2)c2ccc(C(=O)NS(=O)(=O)N(C)C)cc21` (centres unmarked), the negative logarithm of the IC50 (pIC50) at HCV NS5B (setting [1]) was 6.30 to 9.00. In the experiment with HCV replicon cells (setting [2]), the pEC50 is 6.30 to 9.00.
As for `COc1ccc2c(c1)C1CC1(CO)Cn1c-2c(C2CCCCC2)c2ccc(C(=O)NS(=O)(=O)N(C)C)cc21` (centres unmarked), the negative logarithm of the IC50 (pIC50) on HCV NS5B (setting [1]) is 6.30 to 9.00. Moreover, the pEC50 in the experiment on HCV replicon cells (setting [2]) was 6.30 to 9.00.
